Test results: PubChem BioAssay AID2060358 (Molecular Pharmacology Branch, DTP, NCI, 2025)
“And” between values parts separate entries of the source, which are not always exact repeats. Equal values may be shown once.

Test system: 254851-301-R-J1-PDC spheroids, viability % test/control
Experiment: Anticancer human tumor 254851-301-R-J1-PDC patient-derived colon carcinoma cell line growth inhibition [TAK]
Conditions: spheroids with HUVEC and MSC; for viability, T/C: stronger effect = lower value
Description: Combinatorial screen of targeted agents with TAK-243 and ipatasertib in multi-cell type tumor spheroids
A high-throughput screen of multi-cell type tumor spheroids was designed to identify active combinations of targeted small molecules and TAK-243 or ipatasertib. Complex spheroids include a stromal component modeled by human endothelial cells (HUVEC) and fibroblasts modeled by human mesenchymal stem cells (MSCs). The concentration ranges selected for each drug and investigational agent were based upon clinically achievable concentrations if the clinical Cmax of the agent was known.
Compounds. The drugs and investigational agents: TAK-243 (785004), ipatasertib (767898), everolimus (733504), selumetinib (741078), bortezomib (756655), trametinib (758246), ixazomib (758254), vemurafenib (761431), dabrafenib (764134), sapanisertib (764658), alpelisib (765974), and copanlisib (816437), were obtained from the National Cancer Institute (NCI) Developmental Therapeutics Program Chemical Repository. The FDA-approved anticancer drug set is available from the NCI Developmental Therapeutics Program. […] The stock solutions were prepared in dimethyl sulfoxide (DMSO, Sigma-Aldrich, St. Louis, MO, cat. D2650) at 800-fold the tested concentration and stored at -70 degrees C prior to their use. All drugs and investigational agents were tested over a range starting from a high concentration at or near the clinical Cmax and decreasing in half-log increments. If the clinical Cmax for an agent had not been determined, the highest concentration tested was 10 microM.
NCI60 Cell Culture. NCI60 cell lines were obtained from the NCI Developmental Therapeutics Program Tumor Repository. For each lot of cells, the Repository performed Applied Biosystems AmpFLSTR Identifiler testing with PCR amplification to confirm consistency with the published Identifier STR profile for each cell line. Cells were kept in continuous culture for no more than 20 passages. The optimal seeding densities for each of the cell lines at each time point assessed were determined prior to performing the concentration response studies. Briefly, the NCI60 human tumor lines were grown as monolayers in RPMI 1640 medium supplemented with 10% FBS and 2 mmol/L L-glutamine.
An additional 2 lines were from the NCI60 cell line panel including melanomas, MALME-3M and SK-MEL-2. Pooled donor human umbilical vein endothelial cells (HUVEC, Lonza, cat. CC-2519) and human mesenchymal stem cells (hMSC, Lonza, cat. PT-2501) were purchased from Lonza (Walkersville, MD).
PDMR cell lines were grown in complete medium (DC medium): Dulbecco's modified Eagle's medium (DMEM)/F12 supplemented with 5% fetal bovine serum (FBS), 2 mM L-glutamine, 100 U/mL penicillin and 100 µg/ml streptomycin, 0.4 µg/ml hydrocortisone, 10 ng/ml epidermal growth factor (EGF) recombinant human protein, 24 µg/mL adenine, and 0.1 mg/mL primocin. During culture from frozen stock vials, PDMR cells were cultured in the same medium containing 10 µM Y-27632 (see Table 3). The PDCs were cultured in complete DMEM/F12 media without 10 microM Y-27632 dihydrochloride for at least two passages prior to the screen. The pooled donor HUVEC and hMSC were cultured in endothelial cell growth medium 2 (PromoCell, Heidelberg, Germany, cat. C-22011) and mesenchymal stem cell growth medium 2 (PromoCell, cat. C-28009), respectively. For all experiments, HUVEC and hMSC were used at passages </=5.
For the pre-screen, cell seeding densities were determined from a titration spanning the range from 5,000 to 313 cells per well. The mct-spheroids including 60% malignant cells, 25% HUVEC and 15% MSC dispensed as a mixture into U-bottom Ultra-Low Attachment 384-well plates (Corning, NY)
High-throughput Drug Combination Screening.
Prior to their inoculation into 384-well plates, malignant cells, HUVEC, and hMSC were removed from T flasks using TrypLE express (Thermo Fisher Scientific, cat. 12605036) and harvested by centrifugation for 5 min at 233 x g. […]
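Also: spheroids exposed to drugs for seven days before viability readout.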

IC50 (curve of compound) | Compound | viability, T/C (compound 0.0316 µM) | viability, T/C (compound 0.1 µM) | viability, T/C (compound 0.316 µM) | viability, T/C (compound 1 µM) | viability, T/C (compound 0.000316 µM) | viability, T/C (compound 0.001 µM) | viability, T/C (compound 0.00316 µM) | viability, T/C (compound 0.01 µM) | further results
18.7 nM and 17 nM | CC(=O)Nc1cccc(-n2c(=O)n(C3CC3)c(=O)c3c(Nc4ccc(I)cc4F)n(C)c(=O)c(C)c32)c1 |  |  |  |  |  |  |  |  | viability, T/C (compound 94.9 pM): 117% and 114%; viability, T/C (compound 0.0003 µM): 114% and 116%; viability, T/C (compound 0.000949 µM): 105% and 107%; viability, T/C (compound 0.003 µM): 117% and 99%; viability, T/C (compound 0.00949 µM): 97.5% and 83.9%; viability, T/C (compound 0.03 µM): 16.8% and 18.9%
> 10000 nM | CC(C)(C)c1nc(-c2cccc(NS(=O)(=O)c3c(F)cccc3F)c2F)c(-c2ccnc(N)n2)s1 | 116% and 118% | 105% | 92.3% and 86.4% | 82.1% and 82.5% |  |  |  |  | viability, T/C (compound 3.16 µM): 86.8% and 82.2%; viability, T/C (compound 10 µM): 80.3% and 77.6%
> 10 nM | CC(C)CC(NC(=O)C(Cc1ccccc1)NC(=O)c1cnccn1)B(O)O (configuration not stated) |  |  |  |  | 111% and 101% | 98.9% and 100% | 98.5% and 99.1% | 75.7% and 80.8% | viability, T/C (compound 31.6 pM): 118% and 114%; viability, T/C (compound 0.0001 µM): 107%
53.2 nM and 58.1 nM | CC(C)CC(NC(=O)CNC(=O)c1cc(Cl)ccc1Cl)B1OC(=O)CC(CC(=O)O)(C(=O)O)O1 (configuration not stated) | 78.2% | 18.6% and 24.4% |  |  | 110% and 112% | 110% | 96.8% and 99.7% | 94.7% and 102% | 
 | CC(C)NCC(C(=O)N1CCN(c2ncnc3c2C(C)CC3O)CC1)c1ccc(Cl)cc1 (configuration not stated) |  |  |  |  |  |  |  |  | viability, T/C (compound 0.3 µM): 91.8% [middle of 10 runs]; viability, T/C (compound 0.949 µM): 91.8% [middle of 10 runs]; viability, T/C (compound 3 µM): 95% [middle of 10 runs]; viability, T/C (compound 9.49 µM): 91.9% [middle of 10 runs]; viability, T/C (compound 30 µM): 86% [middle of 10 runs]; IC50 (compound alone, run of 02/28/2020): > 30000 nM; IC50 (compound alone, run of 03/19/2020): > 30000 nM
42.5 nM and 40.3 nM | CC(C)n1nc(-c2ccc3oc(N)nc3c2)c2c(N)ncnc21 | 55.7% and 52.2% | 34.5% and 34.2% |  |  | 125% and 110% | 104% and 109% | 89.8% and 90.4% | 76.5% and 81.7% | 
> 100000 nM | CCCS(=O)(=O)Nc1ccc(F)c(C(=O)c2c[nH]c3ncc(-c4ccc(Cl)cc4)cc23)c1F |  |  | 109% and 106% | 93.3% and 90.5% |  |  |  |  | viability, T/C (compound 3.16 µM): 84.6% and 79.4%; viability, T/C (compound 10 µM): 72.3% and 77.4%; viability, T/C (compound 31.6 µM): 73.7% and 71.4%; viability, T/C (compound 100 µM): 63.9% and 73.8%
> 100 nM | COC1CC2CCC(C)C(O)(O2)C(=O)C(=O)N2CCCCC2C(=O)OC(C(C)CC2CCC(OCCO)C(OC)C2)CC(=O)C(C)C=C(C)C(O)C(OC)C(=O)C(C)CC(C)C=CC=CC=C1C (configuration not stated) | 96% and 85.4% | 98.1% and 84% |  |  | 114% and 108% | 109% and 92% | 101% and 89.6% | 101% and 91.6% | 
> 1000 nM | COc1c(OCCCN2CCOCC2)ccc2c3n(c(=NC(=O)c4cnc(N)nc4)nc12)CCN3 | 87.8% and 82.2% | 78% and 71.7% | 75.6% and 65.8% | 59.5% and 56.5% |  |  | 110% and 106% | 96.2% and 96.4% | 
> 10000 nM | Cc1nc(NC(=O)N2CCCC2C(N)=O)sc1-c1ccnc(C(C)(C)C(F)(F)F)c1 (configuration not stated) | 123% and 110% | 103% and 110% | 95.7% and 91.7% | 92.6% and 92.3% |  |  |  |  | viability, T/C (compound 3.16 µM): 84% and 79.1%; viability, T/C (compound 10 µM): 70.8% and 71.9%
1510 nM and 1760 nM | Cn1cnc2c(F)c(Nc3ccc(Br)cc3Cl)c(C(=O)NOCCO)cc21 |  |  |  |  |  |  |  |  | viability, T/C (compound 0.00949 µM): 119% and 114%; viability, T/C (compound 0.03 µM): 120% and 117%; viability, T/C (compound 0.0949 µM): 105% and 117%; viability, T/C (compound 0.3 µM): 103% and 98.6%; viability, T/C (compound 0.949 µM): 76.3% and 84.4%; viability, T/C (compound 3 µM): 12.5% and 22.5%
